Test results reported in patent publication US12630594B2, “Allergy antigen and epitope for same” (HOYU CO., LTD., priority 2017, dated 2026).
Where no end group is shown, it is not given here.

Columns and labels:
Format in all cases: binding, human
[1] = test system: IgE antibodies from patients; test: Epitope mapping (2): overlapping 10-amino-acid peptide fragments shifted by one amino acid; conditions: positions numbered within the 15-amino-acid epitope; serum of 5 patients
Source text: On the basis of the sequences (SEQ ID NOs: 150-154 for alpha-actinin-3, SEQ ID NO: 155 for EEF1A2 binding protein-like, SEQ ID NOs: 156 and 157 for alpha-1,4-glucan phosphorylase, SEQ ID NOs: 158 and 159 for elongation factor 2, SEQ ID NOs: 160-162 for heat shock cognate 70 kDa protein, SEQ ID NOs: 163-167 for serotransferrin, SEQ ID NOs: 168-171 for myosin binding protein H-like, SEQ ID NOs: 172-174 for desmin (fragment), SEQ ID NOs: 175-178 for capping protein (actin filament) muscle Z-line beta, SEQ ID NOs: 179-185 for myosin heavy chain, fast skeletal muscle-like, SEQ ID NO: 186 for glycogen phosphorylase, muscle form-like, SEQ ID NOs: 187-196 for myosin-binding protein C, fast-type-like, SEQ ID NO: 197 for ATP synthase subunit beta, mitochondrial, SEQ ID NO: 198 for L-lactate dehydrogenase A chain-like, SEQ ID NO: 199 for aldolase, SEQ ID NOs: 200-202 for β-enolase, and SEQ ID NOs: 203 and 204 for glyceraldehyde-3-phosphate dehydrogenase) of the peptides bound to an IgE antibody in serum in a patient-specific manner as described above in (A), a library of overlapping peptide fragments (length: 10 amino acids) was prepared using the sequences of the peptides and sequences in which sequences were added so as to flank each peptide in the amino acid sequences of allergen components (SEQ ID NO: 2 for alpha-actinin-3, SEQ ID NO: 5 for EEF1A2 binding protein-like, SEQ ID NO: 10 for alpha-1,4-glucan phosphorylase, SEQ ID NO: 19 for elongation factor 2, SEQ ID NO: 26 for heat shock cognate 70 kDa protein, SEQ ID NO: 33 for serotransferrin, SEQ ID NO: 43 for myosin binding protein H-like, SEQ ID NO: 56 for desmin (fragment), SEQ ID NO: 61 for capping protein (actin filament) muscle Z-line beta, SEQ ID NO: 70 for myosin heavy chain, fast skeletal muscle-like, SEQ ID NO: 110 for glycogen phosphorylase, muscle form-like, SEQ ID NO: 121 for myosin-binding protein C, fast-type-like, SEQ ID NO: 138 for ATP synthase subunit beta, mitochondrial, SEQ ID NO: 144 for L-lactate dehydrogenase A chain-like, SEQ ID NO: 445 for aldolase, SEQ ID NO: 446 for β-enolase, and SEQ ID NO: 447 for glyceraldehyde-3-phosphate dehydrogenase) comprising the sequences of the peptide. Epitope mapping was carried out using the library.
The peptides to be synthesized were shifted by one amino acid.
The library was prepared by the same procedure as described above in (A), and the presence or absence of binding of an IgE antibody present in the serum of a patient and a non-fish-allergic subject to each peptide fragment was measured by the same technique as described above. Amino acids at positions where the binding activity against IgE antibodies from patients were lost or decreased in the peptides shifted by one amino acid while binding activity against IgE antibodies from non-fish-allergic subjects arose were confirmed as amino acids adversely affecting the specificity of binding to IgE antibodies.
Chemiluminescence intensity in images obtained by measurement was converted into a numeric value in the same manner as in (A) using ImageQuant TL (GE Healthcare). […]

[2] = test system: IgE antibody from one patient having allergies to salmons and bastard halibut; test: Confirmation of epitope cross-reactivity (ELISA, FIG. 5); conditions: for binding of IgE antibody to peptide: serum of fish-allergic patient with symptoms to salmon and bastard halibut vs serum mixture from 4 non-fish-allergic subjects, FIG. 5
Source text: FIG. 5 is a diagram showing results of measuring […] using the sera of a fish-allergic patient and a non-fish-allergic subject as to a peptide of epitope No. 11 (SEQ ID NO: 160) having the amino acid sequence “SMVLVKMKEIAEAYL” derived from salmon heat shock cognate 70 kDa protein, and a peptide having the amino acid sequence “AMVLVKMKETAEAYL” derived from bastard halibut heat shock cognate 70 kDa protein. The numeric values on the ordinate represent absorbance for light at a wavelength of 450 nm.
Amino acids other than particularly important amino acids in the region (SEQ ID NO: 250) important for binding, in epitope No. 11 having the amino acid sequence “SMVLVKMKEIAEAYL” (SEQ ID NO: 160) found in salmon heat shock cognate 70 kDa protein in Table 3 were defined as any given amino acid (X). NCBI was searched for proteins having the resulting amino acid sequence “EXXXXYL” (SEQ ID NO: 248). As a result, the amino acid sequence “AMVLVKMKETAEAYL” (SEQ ID NO: 451) of bastard halibut heat shock 70 kDa protein (accession number: XP_019944736.1) was identified. […]
To be specific, ELISA was carried out according to the following procedure. • (1) The concentrations of the biotinylated peptides were adjusted to 1 μg/mL with PBST. • (2) Each peptide solution was added at 40 μL to each well of a 384-well plate coated with streptavidin, and shaken at room temperature for one hour. […] Absorbance at 450 nm was measured.
A peptide having this amino acid sequence “AMVLVKMKETAEAYL” of bastard halibut heat shock 70 kDa protein and a peptide having the amino acid sequence “SMVLVKMKEIAEAYL” of salmon heat shock cognate 70 kDa protein were each prepared by the same procedure as in Example 10(A), and the presence or absence of binding thereto of IgE antibodies present in the serum of a fish-allergic patient having allergy symptoms to salmon and bastard halibut and the serum of a non-fish-allergic subject (serum mixture from 4 subjects) was measured by the same technique as therein.

[3] = test system: IgE antibody in the serum of a fish-allergic patient; test: Immunoblotting of two-dimensional electrophoresis patterns of fish meat proteins with patient serum; conditions: for spots detected by immunoblotting, different from spots with serum of non-fish-allergic subject: proteins contained in salmon meat; for specific binding to IgE antibodies from fish-allergic patients: spots in two-dimensional electrophoresis gel of proteins in fish, patients diagnosed with immediate-type allergy
Protocol: Proteins contained in fish were analyzed by the aforementioned technique to identify antigens of an allergy to fish. To be specific, proteins were extracted from fish meat and subjected to two-dimensional electrophoresis under the conditions described below.
The electrophoresis in the first dimension was isoelectric focusing, which was performed using isoelectric focusing gels with a gel-strip length of 5 to 10 cm and a gel pH range of 3 to 10. The pH gradient of the gels in the direction of electrophoresis was as follows: with the total gel-strip length being taken as 1, the gel-strip length up to pH 5 was “a=0.15 to 0.3”, the gel-strip length from pH 5 to 7 was “b=0.4 to 0.7”, and the gel-strip length above pH 7 was “c=0.15 to 0.3”. More specifically, the isoelectric focusing was performed using the IPG gels, Immobiline Drystrip (pH3-10NL), produced by GE Healthcare Bio-Sciences Corporation (hereinafter abbreviated as “GE”). The electrophoresis system used was IPGphor produced by GE. The maximum current of the electrophoresis system was limited to 75 μA per gel strip. The voltage program adopted to perform the first-dimensional isoelectric focusing was as follows: (1) a constant voltage step was performed at a constant voltage of 300 V until the volt-hours reached 750 Vhr (the current variation width during electrophoresis for 30 minutes before the end of this step was 5 μA); (2) the voltage was increased gradually to 1000 V for 300 Vhr; (3) the voltage was further increased gradually to 5000 V for 4500 Vhr; and then (4) the voltage was held at a constant voltage of 5000 V until the total Vhr reached 12000.
The electrophoresis in the second dimension was SDS-PAGE, which was performed using polyacrylamide gels whose gel concentration at the distal end in the direction of electrophoresis was set to 3 to 6% and whose gel concentration at the proximal end was set to a higher value than that at the distal end. More specifically, the SDS-PAGE was performed using NuPAGE 4-12% Bris-Tris Gels (IPG well, Mini, 1 mm) produced by Life Technologies. The electrophoresis system used was XCell SureLock Mini-Cell produced by Life Technologies. The electrophoresis was run at a constant voltage of 200 V for about 45 minutes using an electrophoresis buffer composed of 50 mM MOPS, 50 mM Tris base, 0.1% (w/v) SDS and 1 mM EDTA.
Identification of antigens by immunoblotting was carried out by taking all the steps up to the step of “Second-dimensional SDS-PAGE” as described above in Example 1, followed by the steps of “Transfer to membrane”, “Immunoblotting” and “Analysis” as described below.
To be specific, proteins in the second-dimensional electrophoresis gels were transferred to a membrane (PVDF membrane) according to the following procedure. • (1) The PVDF membrane was immersed in 100% methanol followed by milliQ water, and then moved into the transfer buffer to hydrophilize the PVDF membrane. • (2) After sponge, filter paper, the second-dimensional electrophoresis gels treated by second-dimensional SDS-PAGE, the hydrophilized PVDF membrane, filter paper, and sponge were put in place in this order, the transfer system was energized at a constant voltage of 30 V for one hour. Immunoblotting
Immunoblotting of the membrane was carried out using, as a primary antibody, a serum sample from patient 1 with a fish allergy or a serum sample from a non-fish-allergic subject. This fish-allergic patient 1 was a patient diagnosed with immediate-type allergy to fish. […]

[4] = serum from fish-allergic patient 2 (FIG. 1B left)

With “11 (SMVLVKMKEIAEAYL; not fully specified (N-terminus)) [compound 11]” the “Positions of amino acids of region important for binding in epitope” value [1] was 9-15 and the epitope cross-reactivity ([2]; between fish species) was “cross-reactivity between the fish species salmon and bastard halibut”.

In the case of “AMVLVKMKETAEAYL (not fully specified (N-terminus))”, the “binding of IgE antibody to peptide” value [2] is reported as “bound in a patient-specific manner”.

For “Capping protein (actin filament) muscle Z-line beta [Spot 9]”, the “spots detected by immunoblotting, different from spots with serum of non-fish-allergic subject” value [3, 4] was “detected” and the “specific binding to IgE antibodies from fish-allergic patients” value (from here on “specific binding”) [3] was “specific binding to IgE antibodies”.

Elongation factor 2 [Spot 4] was tested, and the “specific binding” value [3] was “specific binding to IgE antibodies”.

In the case of “Heat shock cognate 70 kDa protein [Spot 5]”, the “specific binding” value [3] is reported as “specific binding to IgE antibodies”.

With “L-lactate dehydrogenase A chain-like [Spot 14]” the “spots detected by immunoblotting, different from spots with serum of non-fish-allergic subject” value [3, 4] was “newly detected” and the “specific binding” value [3] was “specific binding to IgE antibodies”.

With “Myosin heavy chain, fast skeletal muscle-like [Spot 10]” the “spots detected by immunoblotting, different from spots with serum of non-fish-allergic subject” value ([3]; serum from fish-allergic patient 3 (FIG. 1B right)) was “newly detected” and the “specific binding” value [3] was “specific binding to IgE antibodies”.

With “SMVLVKMKEIAEAYL (not fully specified (N-terminus)) [Epitope No. 11]” the “binding of IgE antibody to peptide” value [2] was “bound in a patient-specific manner”.
